Reference: article PMC4457840, “Differential Inhibition of Signal Peptide Peptidase Family Members by Established γ-Secretase Inhibitors” (PLoS ONE, 2015)
“Also recorded” adds a separate entry of the source. Like-named read-outs stand apart in the source and are kept apart here. Numbered stars: 1 amine (or outer) side, 2 acyl side, 3 side chain; on linkers, the order of the positions; unused ones are H or OH. Square brackets hold non-standard residues; d marks the D form. Peptide text beside a SMILES is read from it. * marks the point of attachment. X1 = CC(N[*:1])C(=O)C(F)(F)C(=O)[*:2]; Boc = CC(C)(C)OC(=O)*

Tests used:
SPPL2a [1] = target: T1, SPPL2a (Homo sapiens, UniProt Q8TCT8); test: FBA/SPPL2a co-transfected HEK 293T cell cleavage assay (Aβ ELISA, Western blot); assay type: cell-based; details: for inhibition of xAβ1-25/K16A secretion (in words) / inhibition at 25 µM: 25 μM; for IC50: HEK cells, 24 h, xAβ1-25/K16A by Aβ ELISA, mean ± standard error, read-out: IC50 on FBA/SPPL co-transfected cells; for inhibition at 25 µM: HEK-293T, DMSO = 100%, read-out: inhibition of the SPP/SPPLs; for rank order of inhibition: number in parenthesis in Table 3
T1 construct: expressed in transfected cells; host or cells: HEK 293T
T1 sequence (Q8TCT8 26-520): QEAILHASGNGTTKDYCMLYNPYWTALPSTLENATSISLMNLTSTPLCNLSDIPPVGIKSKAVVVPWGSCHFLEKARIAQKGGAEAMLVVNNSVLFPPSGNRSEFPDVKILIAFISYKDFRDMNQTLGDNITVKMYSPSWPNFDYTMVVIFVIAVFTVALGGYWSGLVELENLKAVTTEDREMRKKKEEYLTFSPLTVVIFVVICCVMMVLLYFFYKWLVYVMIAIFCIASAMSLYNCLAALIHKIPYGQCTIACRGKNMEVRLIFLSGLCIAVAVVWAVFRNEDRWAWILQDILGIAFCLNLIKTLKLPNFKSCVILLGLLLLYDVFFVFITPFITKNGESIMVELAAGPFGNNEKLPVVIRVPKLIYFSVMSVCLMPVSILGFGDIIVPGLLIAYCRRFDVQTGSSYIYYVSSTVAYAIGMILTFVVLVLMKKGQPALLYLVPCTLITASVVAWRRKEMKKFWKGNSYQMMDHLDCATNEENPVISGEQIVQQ
Source text: (§1) Expression constructs in pcDNA6 for COOH-terminal FLAG (DYKDDDDK) and strep (WSHPQFEK) tagged SPPL2a, SPPL2b, hSPP and pSPP were generated as previously described. Untagged versions of all enzymes were also made and ligated into the pAG3 vector. Substrates (Fig 1) were designed as follows: FLAG-BRI2_1-81- Aβ1-25/K16A (FBA). The K16A mutation was incorporated to prevent potential α-secretase cleavage that would preclude ELISA based detection of the released COOH-terminal fragment. The substrate DNA was cloned into the expression vector pcDNA6. Constructs were confirmed by DNA sequencing. The overexpression of substrates was performed by transiently transfecting human embryonic kidney (HEK 293T) cells with or without SPP/SPPL vectors. Cells were grown in DMEM media supplemented with Hyclone 10% fetal bovine serum (GE, Logan, Utah, USA) and 1% penicillin/streptomycin (Life Technologies, Grand Island, NY, USA). Briefly, 2.7 μg DNA was applied to a 75% confluent 6 well plate (Corning, Tewksbury, MA, USA) using the polycation polyethylenimine (PEI) transfection method. Inhibitor testing experiments were conducted in 48 well plates with appropriately adjusted amounts of DNA and PEI and incubated 12–16 hours, after which the growth medium was replaced with fresh medium. DMSO (Sigma, St. Louis, MO, USA) and GSIs were added at the appropriate concentration. The GSIs, L685,458 and Compound W were purchased from Tocris (Tocris, Bristol, UK). (Z-LL)2 ketone, Compound E, DAPT, GSI II were purchased from Calbiochem (Merck Millipore, Billerica, MA, USA). LY-411,575 was synthesized by A. Fauq at the Mayo Clinic Chemical Core. Twenty-four hours later, the medium was collected for assay by ELISA and MS. A20 cells (TIB-208) (ATCC, Manassas, VA, USA) were cultured in RPMI-1640 medium (ATCC) supplied with 10% fetal bovine serum, 1% penicillin/streptomycin and 0.05 mM 2-mercaptoethanol (Life Technologies). At the density of 5x10^5 cells/ml, A20 cells were spun down at 1000 g for 2 min and resuspended in fresh medium supplied with DMSO or GSIs and incubated for 16 hr.
(§2) Sandwich ELISAs used for Aβ detection were performed as previously described. Briefly, Aβ and Aβ adducts with substrate TMD in conditioned media was captured with Ab5 antibody (human Aβ1–16 specific) and detected with horseradish peroxidase mAb 4G8 (Covance, Princeton, NJ, USA). Synthetic Aβ1–40 was used as standard. All ELISAs were developed with TMB substrate (KPL, Gaithersburg, Maryland, USA). Bis-Tris precast gels (Biorad, Hercules, CA, USA) were used for all SDS-PAGE. Monoclonal anti-FLAG M2 antibody (Sigma) and Aβ1–16 antibody 6E10 (Covance) were used for Western blotting. Antisera against SPPL2a, SPPL2b, hSPP and pSPP were generated as previously described and were used at dilution of 1:1000 for Western blotting. Anti-CD74 In-1 antibody (BD Bioscience, San Jose, CA, USA) was used for A20 cell lysate Western blotting at dilution of 1:1000.

SPPL2b = target: T2, SPPL2b (Homo sapiens, UniProt Q8TCT7); test: FBA/SPPL2b co-transfected HEK 293T cell cleavage assay (Aβ ELISA, Western blot, IP/MS); assay type: cell-based; details: for inhibition of xAβ1-25/K16A secretion (in words) / inhibition at 25 µM: 25 μM, ELISA; for inhibition of FBA cleavage (10 kD ICD) by Western blot: Fig 3C upper panel; for IC50: HEK cells, 24 h, xAβ1-25/K16A by Aβ ELISA, mean ± standard error, read-out: IC50 on FBA/SPPL co-transfected cells; for inhibition at 25 µM: DMSO = 100%, read-out: inhibition of the SPP/SPPLs; for rank order of inhibition: number in parenthesis in Table 3
T2 construct: expressed in transfected cells; host or cells: HEK 293T
T2 sequence (Q8TCT7 26-592): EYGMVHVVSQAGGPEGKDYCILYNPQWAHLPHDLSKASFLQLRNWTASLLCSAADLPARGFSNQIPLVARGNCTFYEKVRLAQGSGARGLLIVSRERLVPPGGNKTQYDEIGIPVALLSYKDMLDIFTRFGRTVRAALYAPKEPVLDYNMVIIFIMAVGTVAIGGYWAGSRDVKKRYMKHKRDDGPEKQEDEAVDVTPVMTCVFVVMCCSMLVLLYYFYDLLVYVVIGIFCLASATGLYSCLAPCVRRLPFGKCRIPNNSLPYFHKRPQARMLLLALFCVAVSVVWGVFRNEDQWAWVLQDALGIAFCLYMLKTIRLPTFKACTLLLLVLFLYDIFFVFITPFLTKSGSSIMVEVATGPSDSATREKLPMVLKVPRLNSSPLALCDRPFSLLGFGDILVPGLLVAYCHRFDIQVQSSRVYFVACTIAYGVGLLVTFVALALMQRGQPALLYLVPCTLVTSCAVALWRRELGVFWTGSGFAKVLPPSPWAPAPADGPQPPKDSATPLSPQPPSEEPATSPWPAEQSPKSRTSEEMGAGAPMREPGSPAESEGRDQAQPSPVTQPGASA
Source text: as §1, §2
(§3) Immunoprecipitation and mass spectrometry of xAβ1–25 in conditioned media were performed as previously described. In this study, 10 ml conditioned media were used for each experiment. ICDs were immunoprecipitated with anti-FLAG M2 magnetic beads. Cells from 10 cm dished treated with DMSO or 20 μM LY-411,575 were used for each test.

pSPP = pSPP (Plasmodium falciparum, UniProt Q8IKQ9); test: FBA/pSPP co-transfected HEK 293T cell cleavage assay (Aβ ELISA, Western blot, IP/MS); assay type: cell-based, human; details: for inhibition at 25 µM: read-out: inhibition of the SPP/SPPLs; for rank order of inhibition: number in parenthesis in Table 3
Chain of pSPP (Q8IKQ9 entry or part of it): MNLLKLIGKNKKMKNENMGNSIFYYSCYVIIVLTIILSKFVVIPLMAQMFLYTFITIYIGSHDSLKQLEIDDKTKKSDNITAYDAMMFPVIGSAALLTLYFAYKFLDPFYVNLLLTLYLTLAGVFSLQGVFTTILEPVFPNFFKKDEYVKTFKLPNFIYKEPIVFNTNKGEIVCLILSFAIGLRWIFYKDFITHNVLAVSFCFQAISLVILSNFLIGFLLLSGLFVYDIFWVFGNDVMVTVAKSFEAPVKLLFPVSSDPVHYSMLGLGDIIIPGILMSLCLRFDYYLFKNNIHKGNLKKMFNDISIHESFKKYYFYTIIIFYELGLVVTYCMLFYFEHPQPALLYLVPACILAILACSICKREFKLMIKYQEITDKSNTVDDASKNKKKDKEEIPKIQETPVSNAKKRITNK
Source text: as §1, §2, §3

SPPL2a [2] = target: T1, SPPL2a; test: FBA/SPPL2a co-transfected HEK 293T cell cleavage assay (Aβ ELISA, Western blot); assay type: cell-based; details: overnight
γ-secretase = test system: γ-secretase; parameters: method as in PMID 24352661, PMID 23791707; details: cited from earlier work
SPP = test system: SPP; parameters: method as in PMID 15252014, PMID 19337374, PMID 12621027; details: cited from earlier work
[3] = 10 μM, Western blot anti-FLAG M2

| Compound | inhibition of xAβ1-25/K16A secretion (in words) (SPPL2a [1]; ELISA) | IC50 (SPPL2a [1]) | inhibition at 25 µM (SPPL2a [1]; ELISA) | rank order of inhibition (SPPL2a [1]) | inhibition of xAβ1-25/K16A secretion (in words) (SPPL2b) | inhibition of FBA cleavage (10 kD ICD) by Western blot (SPPL2b) | IC50 (SPPL2b) | inhibition at 25 µM (SPPL2b; HEK-293T) | rank order of inhibition (SPPL2b) | IC50 (pSPP) | inhibition of xAβ1-25/K16A secretion (in words) (pSPP; pSPP, 25 μM, ELISA) | rank order of inhibition (pSPP; pSPP) | inhibition of SPP activity (SPP) | other results |
| --- | --- | --- | --- | --- | --- | --- | --- | --- | --- | --- | --- | --- | --- | --- |
| CC(C)C[C@H](NC(=O)OCc1ccccc1)C(=O)N[C@@H](CC(C)C)C(=O)NCC(=O)CNC(=O)[C@H](CC(C)C)NC(=O)[C@H](CC(C)C)NC(=O)OCc1ccccc1 [(Z-LL)2 ketone] | largely inhibited | 177 ± 99 nM | > 90% | 2 | largely inhibited | greatly inhibit | 2140 ± 143 nM | > 90% | 2 | 472 ± 114 nM | largely inhibited | 3 | – | FBA cleavage by co-transfected SPPL (in words) (SPPL2a [1]; 10 μM, Aβ ELISA, Fig 1D): largely inhibited; generation of the SPP/SPPL dependent 10 kDa ICD (SPPL2a [1]; [3]): significantly reduced; FBA cleavage by co-transfected SPPL (in words) (SPPL2b; 10 μM, Aβ ELISA, Fig 1D): largely inhibited; generation of the SPP/SPPL dependent 10 kDa ICD (SPPL2b; [3]): significantly reduced; inhibition at 10 µM (SPPL2b; HEK-293T, 10 μM, overnight, Aβ ELISA): > 75%; inhibition at 10 µM (pSPP; HEK-293T, pSPP, 10 μM, overnight, Aβ ELISA): > 75%; inhibition at 25 µM (pSPP; HEK-293T, pSPP, 25 μM, ELISA, DMSO = 100%): > 90%; FBA cleavage by co-transfected SPPL (in words) (pSPP; pSPP, 10 μM, Aβ ELISA, Fig 1D): largely inhibited; generation of the SPP/SPPL dependent 10 kDa ICD (pSPP; pSPP, 10 μM, Western blot anti-FLAG M2): significantly reduced; inhibition at 10 µM (SPPL2a [2]): > 75%; inhibition of γ-secretase cleavage of APP (γ-secretase): does not inhibit |
| C[C@H](NC(=O)Cc1cc(F)cc(F)c1)C(=O)N[C@H]1N=C(c2ccccc2)c2ccccc2N(C)C1=O [Compound E] | – | – | – | – | did not show inhibition | negligible effect | – | – | – | – | did not show inhibition | – | – | inhibition of SPPL2a in dose response (SPPL2a [1]; at the doses tested, ELISA): < 50% |
| C[C@H](NC(=O)Cc1cc(F)cc(F)c1)C(=O)NC(C(=O)OC(C)(C)C)c1ccccc1 (stereo partly shown) [DAPT] | does not inhibit | – | – | – | does not inhibit | slightly reduce | – | – | – | – | does not inhibit | – | selectively inhibit PSENs, but not SPPs | – |
| CC[C@H](C)[C@H](NC(=O)[C@@H](NC(=O)OC(C)(C)C)C(C)C)C(=O)NC(C)C(=O)C(F)(F)C(=O)N[C@H](C(=O)N[C@H](C(=O)OC)[C@@H](C)CC)C(C)C (stereo partly shown) [GSI II] (Boc-VI[X1]VI-OMe) | efficiently inhibited; also recorded: largely inhibited | 8800 ± 94 nM | – | 4 | efficiently inhibited; also recorded: largely inhibited | greatly inhibit | 3600 ± 121 nM | – | 3 | 427 ± 100 nM | efficiently inhibited; also recorded: largely inhibited | 2 | – | – |
| C[C@H](NC(=O)[C@@H](O)c1cc(F)cc(F)c1)C(=O)N[C@@H]1C(=O)N(C)c2ccccc2-c2ccccc21 [LY-411,575] | largely inhibited | 51 ± 79 nM | > 90% | 1 | largely inhibited | greatly inhibit | 5500 ± 122 nM | > 90% | 4 | 3480 ± 90 nM | largely inhibited | 4 | inhibit the activity of SPP | cleavage products in conditioned media by IP/MS (SPPL2b; 20 μM): No major cleavage product was detected; inhibition at 25 µM (pSPP; HEK-293T): > 90%; cleavage products in conditioned media by IP/MS (pSPP; pSPP, 20 μM): No major cleavage product was detected |
